Source: patent US7879910B1, “Compositions and methods for promoting lush hair growth” (Jan Marini Skin Research, Inc., priority 2006, dated 2011)

Columns and labels:
[1] = Estimated margin of safety for topical use; conditions: assuming absorbed daily dosage of 0.020 μg/kg/day; relative to no-observable-adverse-effect dose in long-term laboratory toxicity tests; conservatively estimated
Text: When absorbed in the body, is also metabolized into [+]fluprostenol. Based on extensive studies comparing the chemical structures, ocular and dermal absorption, metabolism, potency at the biological target site, toxicological and pharmacological of PGF2α analogs and derivatives, such as bimatoprost and travoprost, the inventor believes that the compound of Formula I, in particular the 5-Heptenamide, has much more balanced and favorable profiles of safety and efficacy, especially for long term chronic application to the skin. […] Assuming an absorbed daily dosage of 0.020 μg/kg/day, due to tightness of the outmost keratinized skin layer (the stratum corneum) which causes percutaneous permeability of most drugs 100-1000 times less than through the conjunctiva (Urtti & Salminen (1993) Survey of Opthalmology 37:435-456) and the lower hydrolysis rate of the 5-Heptenamide than travoprost, the margin of safety for 5-Heptenamide is conservatively estimated to be about 71,000, which means normal use of the composition delivers a dose that is less than about one 71,000th the no-observable-adverse-effect dose in long-term laboratory toxicity tests.
Traditionally, a margin of safety of 100 (10 for interspecies extrapolation, and 10 for […]) is considered adequate. […]

[2] = Metabolic conversion to the acid form [+]fluprostenol once absorbed in the body; assay type: in vivo, mammal; conditions: assessed by comparison of PGF2α analogs
Text: In particular, the 5-Heptenamide administered to a mammal can be metabolized to produce an acid form which is a single isomer of fluprostenol, [+]fluprostenol having the structure of
Since the compound of Formula I is an amide derivative of a PGF2α analog, once absorbed, hydrolysis by enzymes in the body converts the amide back to the biologically active carboxylic acid. In particular, the 5-Heptenamide can be metabolized to [+]fluprostenol which then binds to the prostaglandin receptor with high affinity and has reduced side effects such as eye irritation and hyperemia (excess blood in vessels supplying the eye).
When absorbed in the body, is also metabolized into [+]fluprostenol. Based on extensive studies comparing the chemical structures, ocular and dermal absorption, metabolism, potency at the biological target site, toxicological and pharmacological of PGF2α analogs and derivatives, such as bimatoprost and travoprost, the inventor believes that the compound of Formula I, in particular the 5-Heptenamide, has much more balanced and favorable profiles of safety and efficacy, especially for long term chronic application to the skin. […]

SMILES	margin of safety [1]	conversion to [+]fluprostenol (acid form) [2]
CCNC(=O)CCC/C=C\C[C@@H]1[C@H](/C=C/[C@@H](O)COc2cccc(C(F)(F)F)c2)[C@H](O)C[C@@H]1O (relative stereo) [5-Heptenamide, 5-Heptenamide, 7-(3,5-dihydroxy-2-(3-hydroxy-4-(3-(trifluoromethyl)phenoxy)-1-butenyl)cyclopentyl)-, N-ethyl, (1R-(1alpha(Z), 2beta(1E,3R*), 3alpha, 5alpha)]	about 71,000	not as quantitatively converted to the acid form
CC(C)OC(=O)CCC/C=C\C[C@@H]1[C@@H](/C=C/[C@@H](O)COc2cccc(C(F)(F)F)c2)[C@H](O)C[C@@H]1O [travoprost, Travoprost, reference compound]		essentially completely converted
